The test concerns P388 leukemia ip, CD2F1 mice, survival T/C. Kind of test: NCI In Vivo Anticancer Drug Screen. Data for tumor model P388 Leukemia (intraperitoneal) in CD2F1 (CDF1) mice. Conditions: endpoint: median survival time, higher = longer survival. In a few lines:
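Mice carrying the transplanted tumor received test compound or vehicle. Survival was recorded in each group, and the value is the treated-group measurement divided by that of the vehicle-treated control group.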

Where [1] appears, read: dose: 50.0 mg/kg/injection, schedule: Q01DX009 (ip), vehicle: saline with Tween-80.
The mark [2] stands for this setting: dose: 100.0 mg/kg/injection, schedule: Q01DX009 (ip), vehicle: saline with Tween-80.
The mark [3] stands for this setting: dose: 200.0 mg/kg/injection, schedule: Q01DX009 (ip), vehicle: saline with Tween-80.
Where [4] appears, read: dose: 100.0 mg/kg/injection, schedule: Q04DX002 (ip), vehicle: saline with Tween-80.
Setting [5] is: dose: 200.0 mg/kg/injection, schedule: Q04DX002 (ip), vehicle: saline with Tween-80.
The mark [6] stands for this setting: dose: 60.0 mg/kg/injection, schedule: Q01DX005 (ip), vehicle: saline with Tween-80.
The mark [7] stands for this setting: dose: 25.0 mg/kg/injection, schedule: Q01DX009 (ip), vehicle: other.
[8] abbreviates: dose: 50.0 mg/kg/injection, schedule: Q01DX009 (ip), vehicle: other.
[9] abbreviates: dose: 100.0 mg/kg/injection, schedule: Q01DX009 (ip), vehicle: other.
Where [10] appears, read: dose: 50.0 mg/kg/injection, schedule: Q01DX005 (ip), vehicle: Klucel (hydroxypropylcellulose) (HPC).
The mark [11] stands for this setting: dose: 100.0 mg/kg/injection, schedule: Q01DX005 (ip), vehicle: Klucel (hydroxypropylcellulose) (HPC).
[12] abbreviates: dose: 200.0 mg/kg/injection, schedule: Q01DX005 (ip), vehicle: Klucel (hydroxypropylcellulose) (HPC).
Where [13] appears, read: dose: 12.5 mg/kg/injection, schedule: Q01DX009 (ip), vehicle: Klucel (hydroxypropylcellulose) (HPC).
[14] abbreviates: dose: 25.0 mg/kg/injection, schedule: Q01DX009 (ip), vehicle: Klucel (hydroxypropylcellulose) (HPC).

The structures appear in SMILES notation. Several values for one entry are separate records, joined by “and”; a condition that tells them apart may be missing. Equal values may be shown once. Inconclusive results and toxic doses are left out.

For `CC(=O)OCC1OC(n2ncc(=S)[nH]c2=O)C2OC(C)(C)OC12` (centres undefined), the T/C is, setting by setting: under setting [1], 92 % of control; under setting [2], 95 % of control; under setting [3], 97 % of control.

With `COc1ccc(/C=N\N=C(/[O-])c2ccccc2O)cc1.COc1ccc(/C=N\N=C(/[O-])c2ccccc2O)cc1.[Ni+2]`, the T/C (dose: 50.0 mg/kg/injection, schedule: Q04DX002 (ip), vehicle: saline with Tween-80) is 93 % of control; the T/C under setting [4] was 86 % of control; the T/C under setting [5] was 88 % of control.

For the compound `O=c1[nH]cnc2[nH]ccc12`, the T/C under setting [1] is 106 % of control.

In the case of `CCCCCCNC(=O)CNC(=O)C=[N+]=[N-]`, the T/C is 101 % of control under setting [1], 101 % of control under setting [2] and 97 % of control under setting [3].

Regarding `N#Cc1ccccc1NC(=O)Nc1ccc(Cl)cc1Cl`, the T/C was 94 % of control (dose: 0.46 mg/kg/injection, schedule: Q01DX005 (ip), vehicle: saline with Tween-80); 97 % of control (dose: 0.93 mg/kg/injection, schedule: Q01DX005 (ip), vehicle: saline with Tween-80); 99 % of control (dose: 1.87 mg/kg/injection, schedule: Q01DX005 (ip), vehicle: saline with Tween-80); 91 % of control and 92 % of control under setting [6]; 88 % of control (dose: 120.0 mg/kg/injection, schedule: Q01DX005 (ip), vehicle: saline with Tween-80); 98 % of control (dose: 240.0 mg/kg/injection, schedule: Q01DX005 (ip), vehicle: saline with Tween-80).

For `CCOC(=O)/C=C/CI`, the T/C is 105 % of control and 98 % of control under setting [7]; 114 % of control and 120 % of control and 97 % of control under setting [8]; 117 % of control and 97 % of control under setting [9].

Turning to `CC(C)(C)c1cc2c(O)c(c1)Cc1cc(C(C)(C)C)cc(c1O)Cc1cc(C(C)(C)C)cc(c1O)Cc1cc(C(C)(C)C)cc(c1O)Cc1cc(C(C)(C)C)cc(c1O)Cc1cc(C(C)(C)C)cc(c1O)C2`, the T/C is 99 % of control under setting [10], 92 % of control under setting [11] and 92 % of control under setting [12].

Regarding `C/C(=N\N)c1cnc(N)nc1C`, the T/C runs as follows: (dose: 60.0 mg/kg/injection, schedule: Q01DX005 (ip), vehicle: saline) 101 % of control; (dose: 120.0 mg/kg/injection, schedule: Q01DX005 (ip), vehicle: saline) 107 % of control; (dose: 240.0 mg/kg/injection, schedule: Q01DX005 (ip), vehicle: saline) 100 % of control.

For the compound `C[C@@H]1O[C@H]2O[C@@H]3[C@@H](C)O[C@@H](c4ccc5c(c4O)C(=O)c4ccc(C[C@@](C)(O)CC(=O)O)c(O)c4C5=O)C[C@H]3O[C@H]2CC1=O`, the T/C runs as follows: (dose: 23.5 mg/kg/injection, schedule: Q01DX005 (ip), vehicle: Klucel (hydroxypropylcellulose) (HPC)) 105 % of control; (dose: 47.0 mg/kg/injection, schedule: Q01DX005 (ip), vehicle: Klucel (hydroxypropylcellulose) (HPC)) 105 % of control; (dose: 94.0 mg/kg/injection, schedule: Q01DX005 (ip), vehicle: Klucel (hydroxypropylcellulose) (HPC)) 97 % of control.

Turning to `CCOC(=O)COc1cc2c(cc1C(C)c1ccc(OCC)cc1)OCO2` (centres undefined), the T/C under setting [10] was 93 % of control, the T/C under setting [11] was 93 % of control and the T/C under setting [12] is 88 % of control.

As to `CCOC(=O)c1ccc(NC(=O)CS)cc1`, the T/C is 98 % of control (dose: 25.0 mg/kg/injection, schedule: Q01DX009 (ip), vehicle: saline with Tween-80); 99 % of control under setting [1]; 102 % of control under setting [2]; 108 % of control under setting [3].

On to `O=C1OCC/C1=C1/Nc2ccccc2NC1=O`, for which the T/C is, setting by setting: under setting [1], 89 % of control; under setting [3], 91 % of control.

`O=C(O)CCCCC=C(c1ccccc1)c1ccccc1`: the T/C is 101 % of control (dose: 50.0 mg/kg/injection, schedule: Q01DX005 (ip), vehicle: saline + Tween-80 + alcohol); 102 % of control (dose: 100.0 mg/kg/injection, schedule: Q01DX005 (ip), vehicle: saline + Tween-80 + alcohol); 101 % of control (dose: 200.0 mg/kg/injection, schedule: Q01DX005 (ip), vehicle: saline + Tween-80 + alcohol).

Take `O=C1NC(=O)/C(=C\c2ccccc2)C2=C1CCCC2`: the T/C is 103 % of control (dose: 12.5 mg/kg/injection, schedule: Q01DX005 (ip), vehicle: Klucel (hydroxypropylcellulose) (HPC)); 103 % of control (dose: 25.0 mg/kg/injection, schedule: Q01DX005 (ip), vehicle: Klucel (hydroxypropylcellulose) (HPC)); 108 % of control under setting [10].

As for `Cc1ccc2c(C(=O)O)cccc2n1`, the T/C is 97 % of control under setting [4]; 98 % of control under setting [5]; 95 % of control (dose: 400.0 mg/kg/injection, schedule: Q04DX002 (ip), vehicle: saline with Tween-80).

Consider `COc1ccc(OC)c(CC(C(C)=O)C(C)=O)c1`, for which the T/C reads like this: under setting [7], 100 % of control; under setting [8], 105 % of control; under setting [9], 106 % of control; (dose: 200.0 mg/kg/injection, schedule: Q01DX009 (ip), vehicle: other) 108 % of control; (dose: 400.0 mg/kg/injection, schedule: Q01DX009 (ip), vehicle: other) 116 % of control.

`C1CCC2OCCOCCOC3CCCCC3OCCOCCOC2C1` (centres undefined): the T/C by setting is: under setting [13], 95 % of control and 96 % of control; under setting [14], 114 % of control and 91 % of control.

As for `CCCOn1nnc2ccccc21`, the T/C reads like this: (dose: 100.0 mg/kg/injection, schedule: Q04DX003 (ip), vehicle: saline with Tween-80) 99 % of control; (dose: 200.0 mg/kg/injection, schedule: Q04DX003 (ip), vehicle: saline with Tween-80) 102 % of control; (dose: 400.0 mg/kg/injection, schedule: Q04DX003 (ip), vehicle: saline with Tween-80) 107 % of control.

With `C/C=C(/C)C(=O)OC/C(=C/C)C(=O)OC1C=CC(C)(C)C(C=O)=C1C` (centres undefined), the T/C under setting [13] was 93 % of control; the T/C under setting [14] was 93 % of control; the T/C (dose: 100.0 mg/kg/injection, schedule: Q01DX009 (ip), vehicle: Klucel (hydroxypropylcellulose) (HPC)) is 93 % of control.

For the compound `CC(=O)OC1CC(C(=O)c2ccccc2)N2N=CN(c3ccccc3)C12` (centres undefined), the T/C (dose: 60.0 mg/kg/injection, schedule: Q01DX005 (ip), vehicle: Klucel (hydroxypropylcellulose) (HPC)) is 103 % of control; the T/C (dose: 120.0 mg/kg/injection, schedule: Q01DX005 (ip), vehicle: Klucel (hydroxypropylcellulose) (HPC)) was 102 % of control; the T/C (dose: 240.0 mg/kg/injection, schedule: Q01DX005 (ip), vehicle: Klucel (hydroxypropylcellulose) (HPC)) is 104 % of control.

Consider `CCCCC(=O)c1c(O)c2ccccc2oc1=O`, for which the T/C is 100 % of control (dose: 15.0 mg/kg/injection, schedule: Q01DX005 (ip), vehicle: saline with Tween-80); 97 % of control (dose: 30.0 mg/kg/injection, schedule: Q01DX005 (ip), vehicle: saline with Tween-80); 116 % of control and 94 % of control under setting [6].

As to `CC1C=NNC1=O` (centres undefined), the T/C (dose: 6.25 mg/kg/injection, schedule: Q01DX009 (ip), vehicle: saline with Tween-80) is 112 % of control; the T/C (dose: 125.0 mg/kg/injection, schedule: Q01DX009 (ip), vehicle: other) was 120 % of control; the T/C (dose: 125.0 mg/kg/injection, schedule: Q01DX009 (ip), vehicle: saline with Tween-80) was 100 % of control; the T/C (dose: 250.0 mg/kg/injection, schedule: Q01DX009 (ip), vehicle: other) is 115 % of control; the T/C (dose: 500.0 mg/kg/injection, schedule: Q01DX009 (ip), vehicle: other) is 175 % of control; the T/C (dose: 1000.0 mg/kg/injection, schedule: Q01DX009 (ip), vehicle: saline with Tween-80) is 172 % of control.

For the compound `C(=N/OC(c1ccccc1)(c1ccccc1)c1ccccc1)/c1ccccc1`, the T/C is 104 % of control (dose: 25.0 mg/kg/injection, schedule: Q04DX003 (ip), vehicle: saline); 100 % of control (dose: 75.0 mg/kg/injection, schedule: Q04DX003 (ip), vehicle: saline); 95 % of control (dose: 150.0 mg/kg/injection, schedule: Q04DX003 (ip), vehicle: saline).

The record behind these values is PubChem BioAssay AID330 (DTP/NCI, 2004).
